Experimental data published in patent US9661853B2, “Molecules having pesticidal utility, and intermediates, compositions, and processes, related thereto” (Dow AgroSciences LLC, priority 2015, dated 2017).

Tests used:
[1] = test system: Beet Armyworm (Spodoptera exigua, LAPHEG); assay: Bioassay on Beet Armyworm (BAW), 128-well diet tray assay; format: in vivo; settings: 168 h, 50 μg/cm^2 on artificial diet, second instar larvae, 25° C., five to seven days, average of eight wells, read-out: BAW % Control (or Mortality) rating
Procedure: (§1) Bioassays on Beet Armyworm (Spodoptera exigua, LAPHEG) (“BAW”) and Cabbage Looper (Trichoplusia ni, TRIPNI) (“CL”)
(§2) Certain molecules disclosed in this document were tested against BAW and CL using procedures described in the following examples. In the reporting of the results, the “BAW & CL Rating Table” was used (See Table Section).
Bioassays on BAW were conducted using a 128-well diet tray assay. One to five second instar BAW larvae were placed in each well (3 mL) of the diet tray that had been previously filled with 1 mL of artificial diet to which 50 μg/cm^2 of the test molecule (dissolved in 50 μL of 90:10 acetone-water mixture) had been applied (to each of eight wells) and then allowed to dry. Trays were covered with a clear self-adhesive cover, vented to allow gas exchange, and held at 25° C., 14:10 light-dark for five to seven days. Percent mortality was recorded for the larvae in each well; activity in the eight wells was then averaged. The results are indicated in the table entitled “Table ABC: Biological Results” (See Table Section).

[2] = test system: Cabbage Looper (Trichoplusia ni, TRIPNI); assay: Bioassay on Cabbage Looper (CL), 128-well diet tray assay; format: in vivo; settings: 168 h, 50 μg/cm^2 on artificial diet, second instar larvae, 25° C., five to seven days, average of eight wells, read-out: CL % Control (or Mortality) rating
Procedure: as §1, §2
Bioassays on CL were conducted using a 128-well diet tray assay. One to five second instar CL larvae were placed in each well (3 mL) of the diet tray that had been previously filled with 1 mL of artificial diet to which 50 μg/cm^2 of the test molecule (dissolved in 50 μL of 90:10 acetone-water mixture) had been applied (to each of eight wells) and then allowed to dry. Trays were covered with a clear self-adhesive cover, vented to allow gas exchange, and held at 25° C., 14:10 light-dark for five to seven days. Percent mortality was recorded for the larvae in each well; activity in the eight wells was then averaged. The results are indicated in the table entitled “Table ABC: Biological Results” (See Table Section).

SMILES | mortality at 50 µg/cm2 [1] [%] | mortality at 50 µg/cm2 [2] [%]
COC(C)c1ccc(C)cc1N1C(=O)CS/C1=N\C(=O)Nc1ccc(CNc2ncn(-c3ccc(OC(F)(F)F)cc3)n2)cc1 (centres unmarked) [F1, (Z)-1-(3-(2-(1-Methoxyethyl)-5-methylphenyl)-4-oxothiazolidin-2-ylidene)-3-(4-(((1-(4-(trifluoromethoxy)phenyl)-1H-1,2,4-triazol-3-yl)amino)methyl)phenyl)urea] | 50 to 100 | 50 to 100
COCc1ccc(C)cc1N1C(=O)CS/C1=N\C(=O)Nc1ccc(CNc2ncn(-c3ccc(OC(F)(F)F)cc3)n2)cc1 [F4, (Z)-1-(3-(2-(Methoxymethyl)-5-methylphenyl)-4-oxothiazolidin-2-ylidene)-3-(4-(((1-(4-(trifluoromethoxy)phenyl)-1H-1,2,4-triazol-3-yl)amino)methyl)phenyl)urea] | 50 to 100 | 50 to 100
Cc1ccc(C(C)C)c(N2C(=O)CS/C2=N\C(=O)Nc2ccc(CNc3ncn(-c4ccc(OC(F)(F)F)cc4)n3)c(Cl)c2)c1 [F7, (Z)-1-(3-Chloro-4-(((1-(4-(trifluoromethoxy)phenyl)-1H-1,2,4-triazol-3-yl)amino)methyl)phenyl)-3-(3-(2-isopropyl-5-methylphenyl)-4-oxothiazolidin-2-ylidene)urea] | 50 to 100 | 50 to 100
CCCc1ccc(C)cc1N1C(=O)CS/C1=N\C(=O)Nc1ccc(CNc2ncn(-c3ccc(OC(F)(F)F)cc3)n2)c(Cl)c1 [F8, (Z)-1-(3-Chloro-4-(((1-(4-(trifluoromethoxy)phenyl)-1H-1,2,4-triazol-3-yl)amino)methyl)phenyl)-3-(3-(5-methyl-2-propylphenyl)-4-oxothiazolidin-2-ylidene)urea] | 50 to 100 | 50 to 100
COCc1ccc(C)cc1N1C(=O)CS/C1=N\C(=O)Nc1ccc(CNc2ncn(-c3ccc(OC(F)(F)F)cc3)n2)c(Cl)c1 [F9, (Z)-1-(3-Chloro-4-(((1-(4-(trifluoromethoxy)phenyl)-1H-1,2,4-triazol-3-yl)amino)methyl)phenyl)-3-(3-(2-(methoxymethyl)-5-methylphenyl)-4-oxothiazolidin-2-ylidene)urea] | 50 to 100 | 50 to 100
Cc1ccc(C(C)C)c(N2C(=O)CS/C2=N\C(=O)Nc2ccc(CNc3ncn(-c4ccc(OC(F)(F)F)cc4)n3)cn2)c1 [F11, (Z)-1-(3-(2-Isopropyl-5-methylphenyl)-4-oxothiazolidin-2-ylidene)-3-(5-(((1-(4-(trifluoromethoxy)phenyl)-1H-1,2,4-triazol-3-yl)amino)methyl)pyridin-2-yl)urea] | 50 to 100 | 50 to 100
CCCc1ccc(C)cc1N1C(=O)CS/C1=N\C(=O)Nc1ccc(CNc2ncn(-c3ccc(OC(F)(F)F)cc3)n2)cn1 [F12, (Z)-1-(3-(5-Methyl-2-propylphenyl)-4-oxothiazolidin-2-ylidene)-3-(5-(((1-(4-(trifluoromethoxy)phenyl)-1H-1,2,4-triazol-3-yl)amino)methyl)pyridin-2-yl)urea] | 50 to 100 | 50 to 100
COCc1ccc(C)cc1N1C(=O)CS/C1=N\C(=O)Nc1ccc(CNc2ncn(-c3ccc(OC(F)(F)F)cc3)n2)cn1 [F13, (Z)-1-(3-(2-(Methoxymethyl)-5-methylphenyl)-4-oxothiazolidin-2-ylidene)-3-(5-(((1-(4-(trifluoromethoxy)phenyl)-1H-1,2,4-triazol-3-yl)amino)methyl)pyridin-2-yl)urea] | 50 to 100 | 50 to 100
COCc1ccc(C)cc1N1C(=O)CS/C1=N\C(=O)Nc1ccc(CN(C)c2ncn(-c3ccc(OC(F)(F)F)cc3)n2)cn1 [F14, (Z)-1-(3-(2-(Methoxymethyl)-5-methylphenyl)-4-oxothiazolidin-2-ylidene)-3-(5-((methyl(1-(4-(trifluoromethoxy)phenyl)-1H-1,2,4-triazol-3-yl)amino)methyl)pyridin-2-yl)urea] | 50 to 100 | 50 to 100
Cc1ccc(C(C)C)c(N2C(=O)CS/C2=N\C(=O)Nc2ccc(CN(C)c3ncn(-c4ccc(OC(F)(F)F)cc4)n3)cn2)c1 [F16, (Z)-1-(3-(2-Isopropyl-5-methylphenyl)-4-oxothiazolidin-2-ylidene)-3-(5-((methyl(1-(4-(trifluoromethoxy)phenyl)-1H-1,2,4-triazol-3-yl)amino)methyl)pyridin-2-yl)urea] | 50 to 100 | 50 to 100
COCc1ccc(C)cc1N1C(=O)CS/C1=N\C(=O)Nc1ccc(CN(C)c2ncn(-c3ccc(OC(F)(F)F)cc3)n2)cc1F [F17, (Z)-1-(2-Fluoro-4-((methyl(1-(4-(trifluoromethoxy)phenyl)-1H-1,2,4-triazol-3-yl)amino)methyl)phenyl)-3-(3-(2-(methoxymethyl)-5-methylphenyl)-4-oxothiazolidin-2-ylidene)urea] | 50 to 100 | 50 to 100
COCc1ccc(C)cc1N1C(=O)CS/C1=N\C(=O)Nc1ccc(CN(C)c2ncn(-c3ccc(OC(F)(F)F)cc3)n2)c(Cl)c1 [F18, (Z)-1-(3-Chloro-4-((methyl(1-(4-(trifluoromethoxy)phenyl)-1H-1,2,4-triazol-3-yl)amino)methyl)phenyl)-3-(3-(2-(methoxymethyl)-5-methylphenyl)-4-oxothiazolidin-2-ylidene)urea] | 0 to 50 | 0 to 50
CCCc1ccc(C)cc1N1C(=O)CS/C1=N\C(=O)Nc1ccc(CN(C)c2ncn(-c3ccc(OC(F)(F)F)cc3)n2)c(Cl)c1 [F19, (Z)-1-(3-Chloro-4-((methyl(1-(4-(trifluoromethoxy)phenyl)-1H-1,2,4-triazol-3-yl)amino)methyl)phenyl)-3-(3-(5-methyl-2-propylphenyl)-4-oxothiazolidin-2-ylidene)urea] | 0 | 0
Cc1ccc(C(C)C)c(N2C(=O)CS/C2=N\C(=O)Nc2ccc(CN(C)c3ncn(-c4ccc(OC(F)(F)F)cc4)n3)c(Cl)c2)c1 [F20, (Z)-1-(3-Chloro-4-((methyl(1-(4-(trifluoromethoxy)phenyl)-1H-1,2,4-triazol-3-yl)amino)methyl)phenyl)-3-(3-(2-isopropyl-5-methylphenyl)-4-oxothiazolidin-2-ylidene)urea] | 0 to 50 | 50 to 100
Cc1ccc(C(C)C)c(N2C(=O)CS/C2=N\C(=O)Nc2ccc(CN(C)c3ncn(-c4ccc(OC(F)(F)F)cc4)n3)cc2F)c1 [F22, (Z)-1-(2-Fluoro-4-((methyl(1-(4-(trifluoromethoxy)phenyl)-1H-1,2,4-triazol-3-yl)amino)methyl)phenyl)-3-(3-(2-isopropyl-5-methylphenyl)-4-oxothiazolidin-2-ylidene)urea] | 50 to 100 | 50 to 100
CCCc1ccc(C)cc1N1C(=O)CS/C1=N\C(=O)Nc1ccc(CN(C)c2ncn(-c3ccc(OC(F)(F)F)cc3)n2)cc1 [F23, (Z)-1-(4-((Methyl(1-(4-(trifluoromethoxy)phenyl)-1H-1,2,4-triazol-3-yl)amino)methyl)phenyl)-3-(3-(5-methyl-2-propylphenyl)-4-oxothiazolidin-2-ylidene)urea] | 50 to 100 | 50 to 100
